# Like-named read-outs stand apart in the source and are kept apart here.
# Assays:
# [1] = format: physicochemical; settings: DI water, 25° C., 0.5 mM
# [2] = format: physicochemical; settings: SGF with pepsin, pH 1.5, 37° C., 0.5 mM
SMILES,Condition 2 Conversion (%) ([1]; time 1 min),Condition 2 Conversion (%) ([1]; time 5 min),Condition 2 Conversion (%) ([1]; time 30 min),Condition 2 Conversion (%) ([1]; time 1 h),Condition 2 Conversion (%) ([1]; time 4 h),Condition 2 Conversion (%) ([1]; time 24 h),Condition 1 Conversion (%) ([2]; time 1 min),Condition 1 Conversion (%) ([2]; time 5 min),Condition 1 Conversion (%) ([2]; time 30 min),Condition 1 Conversion (%) ([2]; time 1 h),Condition 1 Conversion (%) ([2]; time 4 h),Condition 1 Conversion (%) ([2]; time 24 h)
"COc1ccc([C@@]23CC/C(=N\NC(=O)NCCc4cccs4)C[C@@H]2N(C)CC3)cc1OC [Compound 256, 1-[[(3aS,7aS)-3a-(3,4-dimethoxyphenyl)-1-methyl-2,3,4,5,7,7a-hexahydroindol-6-ylidene]amino]-3-[2-(2-thienyl)ethyl]urea]",0%,0%,0%,0%,43%,0%,0%,0%,100%,100%,23%,100%
"COc1ccc([C@@]23CC/C(=N\NC(=O)Nc4ccc(N5CCN(C)CC5)cc4)C[C@@H]2N(C)CC3)cc1OC [Compound 257, 1-[[(3aS,7aS)-3a-(3,4-dimethoxyphenyl)-1-methyl-2,3,4,5,7,7a-hexahydroindol-6-ylidene]amino]-3-[4-(4-methylpiperazin-1-yl)phenyl]urea]",0%,0%,5%,8%,30%,95%,4.6%,54.1%,100%,100%,100%,100%
"COc1ccc([C@@]23CC/C(=N\NC(=O)NC[C@H]4CC[C@H](C(=O)O)CC4)C[C@@H]2N(C)CC3)cc1OC [Compound 258, 4-[[[[(3aS,7aS)-3a-(3,4-dimethoxyphenyl)-1-methyl-2,3,4,5,7,7a-hexahydroindol-6-ylidene]amino]carbamoylamino]methyl]cyclohexanecarboxylicacid]",0%,0%,0%,0%,0%,0%,0%,0%,42.82%,100%,100%,100%
"COc1ccc([C@@]23CC/C(=N/NC(=O)Nc4ccccc4Cl)C[C@@H]2N(C)CC3)cc1OC [Compound 270, 1-[(Z)-[(3aS,7aS)-3a-(3,4-dimethoxyphenyl)-1-methyl-2,3,4,5,7,7a-hexahydroindol-6-ylidene]amino]-3-(2-chlorophenyl)urea]",0%,0%,0%,0%,,,0%,0%,1%,1%,,
"COc1ccc([C@@]23CCC(=NNC(=O)C45CC6CC(CC(C6)C4)C5)C[C@@H]2N(C)CC3)cc1OC [Compound 271, N-[[(3aS,7aS)-3a-(3,4-dimethoxyphenyl)-1-methyl-2,3,4,5,7,7a-hexahydroindol-6-ylidene]amino]adamantane-1-carboxamide]",78.3%,70.3%,82%,85.7%,94.5%,100%,100%,100%,100%,100%,100%,100%
"COc1ccc([C@@]23CC/C(=N/OC45CC6CC(CC(C6)C4)C5)C[C@@H]2N(C)CC3)cc1OC [Compound 274, (Z,3aS,7aS)-N-(1-adamantyloxy)-3a-(3,4-dimethoxyphenyl)-1-methyl-2,3,4,5,7,7a-hexahydroindol-6-imine]",0%,0%,0%,0%,0%,0%,0%,0%,0%,0%,35.5%,39.91%
"COc1ccc([C@@]23CCC(=NOCCC45CC6CC(CC(C6)C4)C5)C[C@@H]2N(C)CC3)cc1OC [Compound 276, (3aS,7aS)-N-[2-(1-adamantyl)ethoxy]-3a-(3,4-dimethoxyphenyl)-1-methyl-2,3,4,5,7,7a-hexahydroindol-6-imine]",0%,0%,0%,0%,0%,0%,0%,0%,0%,2.77%,5.48%,5.5%
"COc1ccc([C@@]23CCC(=NNC(=O)Nc4cccnc4)C[C@@H]2N(C)CC3)cc1OC [Compound 299, 1-[[(3aS,7aS)-3a-(3,4-dimethoxyphenyl)-1-methyl-2,3,4,5,7,7a-hexahydroindol-6-ylidene]amino]-3-(3-pyridyl)urea]",0%,0%,0%,0%,8%,13%,53%,100%,100%,100%,100%,100%
"COc1ccc([C@@]23CC/C(=N/OC45CC6CC(CC(C6)C4)C5)C[C@@H]2N(C)CC3)cc1OC [Compound 301, (Z,3aS,7aS)-N-(1-adamantyloxy)-3a-(3,4-dimethoxyphenyl)-1-methyl-2,3,4,5,7,7a-hexahydroindol-6-imine]",0%,0%,0%,0%,0%,0%,0%,0%,0%,0%,100%,100%
"COc1ccc([C@@]23CCC(=NNc4ccc(F)cc4)C[C@@H]2N(C)CC3)cc1OC [Compound 361, (3aS,7aS)-3a-(3,4-dimethoxyphenyl)-6-(2-(4-fluorophenyl)-hydrazineylidene)-1-methyloctahydro-1H-indole]",0%,0%,0%,0%,45%,100%,10%,100%,100%,100%,100%,100%
"COc1ccc([C@@]23CCC(=NNc4ccc(C(=O)O)cc4)C[C@@H]2N(C)CC3)cc1OC [Compound 363, 4-[2-[(3aS,7aS)-3a-(3,4-dimethoxyphenyl)-1-methyl-2,3,4,5,7,7a-hexahydroindol-6-ylidene]hydrazino]benzoic acid]",0%,0%,0%,0%,0%,8.1%,0%,0%,0%,2.1%,27.1%,46.7%
"COc1ccc([C@@]23CCC(=NNc4ncccc4C)C[C@@H]2N(C)CC3)cc1OC [Compound 364, (3aS,7aS)-3a-(3,4-dimethoxyphenyl)-1-methyl-6-(2-(3-methylpyridin-2-yl)hydrazineylidene)octahydro-1H-indole]",0%,0%,0%,35.78%,47%,78.89%,10%,100%,14.91%,16.09%,77.07%,90.5%
"COc1ccc([C@@]23CCC(=NNc4cnccn4)C[C@@H]2N(C)CC3)cc1OC [Compound 365, N-[[(3aS,7aS)-3a-(3,4-dimethoxyphenyl)-1-methyl-2,3,4,5,7,7a-hexahydroindol-6-ylidene]amino]pyrazin-2-amine]",0%,0%,10.11%,11.33%,12.6%,17.4%,0%,8.9%,47.1%,77.4%,94.1%,100%
